Laboratory results: the supplement of paper PMC10307832

Assays:
Test in all cases: relative viability (nuclei count vs DMSO), 5 days (fraction); higher = more cells survive
[1] = compound: O=C(CCCCCCNC(=O)c1cnc(N(c2ccccc2)c2ccccc2)nc1)NO [Ricolinostat] + COc1cccc2cc(-c3nc([C@H]4CC[C@H](C(=O)O)CC4)n4ncnc(N)c34)[nH]c12 [OSI-027] (partner 0.5 µM)
Method in brief: (§1)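 Medians of duplicate plates are given as relative viability. That measure is the nuclei count in treated wells divided by the count in vehicle wells. Counts were taken on 4× images of lung cancer cell lines in 1536-well plates, 5 days after pin-tool dosing the day after seeding with one drug alone or a fixed anchor-drug dose plus five library-drug doses (not always all listed) in √10 steps.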

[2] = compound: O=C(CCCCCCNC(=O)c1cnc(N(c2ccccc2)c2ccccc2)nc1)NO [Ricolinostat] + C[C@@H](Oc1cc(-c2cnn(C3CCNCC3)c2)cnc1N)c1c(Cl)ccc(F)c1Cl [Crizotinib] (partner 1 µM)
Method in brief: as §1

[3] = compound: C1=CC=C(C(=C1)C2=CC=C(C=C2)C3=CSC4=C3C(=C(C(=O)N4)C#N)O)O + O=C(CCCCCCC(=O)Nc1ccccc1)NO [Vorinostat] (partner 1 µM)
Method in brief: as §1

Cell Line	relative viability ([1]; first compound 0.08 µM)	relative viability ([1]; first compound 0.253 µM)	relative viability ([1]; first compound 0.8 µM)	relative viability ([1]; first compound 2.53 µM)	relative viability ([2]; first compound 0.08 µM)	relative viability ([2]; first compound 0.253 µM)	relative viability ([2]; first compound 0.8 µM)	relative viability ([2]; first compound 2.53 µM)	relative viability ([3]; first compound 0.08 µM)	relative viability ([3]; first compound 0.253 µM)	relative viability ([3]; first compound 0.8 µM)	relative viability ([3]; first compound 2.53 µM)	relative viability ([3]; first compound 8 µM)
NCI-H1734	0.473	0.673	0.632	0.617	0.561	0.792	0.706	0.581	0.747	0.767	0.751	0.803	0.765
NCI-H2087	–	0.603	0.545	0.45	0.891	0.791	0.709	0.688	0.336	0.672	0.685	0.764	0.918
NCI-H1666	0.716	0.884	0.845	0.691	0.767	1.16	0.944	0.776	0.905	1.04	0.993	1.03	0.984
NCI-H1915	0.525	0.65	0.623	0.421	0.853	0.868	0.882	0.809	0.455	0.468	0.449	0.552	0.46
RERF-LC-KJ	0.578	0.569	0.47	0.438	0.784	0.754	0.819	0.65	0.639	0.763	0.751	0.714	0.544
NCI-H520	–	0.259	0.231	0.228	–	0.667	0.707	0.782	0.655	0.571	0.69	0.726	0.604
NCI-H2085	–	0.72	0.627	0.414	–	0.81	0.819	0.848	0.726	0.893	0.764	0.784	0.714
LCLC-103H	0.363	0.447	0.48	0.444	0.951	1.02	1.04	1.05	0.722	0.81	0.707	0.767	0.728
PC-14	0.728	0.72	0.769	0.511	0.882	0.912	0.907	0.761	0.64	0.863	0.563	0.71	0.567
HCC-366	0.809	1.05	0.842	0.523	0.49	0.464	0.428	0.188	–	0.35	0.348	0.309	0.315
NCI-H2126	0.489	0.847	0.658	0.692	0.862	0.945	1.06	1.01	0.846	0.787	0.803	0.832	0.732
NCI-H2023	–	0.446	0.343	0.377	0.567	0.715	0.605	0.508	0.677	0.793	0.56	0.725	0.453
SK-LU-1	0.321	0.431	0.353	0.269	0.789	0.897	0.809	0.682	0.737	0.727	0.655	0.761	0.671
NCI-H2347	0.293	0.451	0.364	0.319	0.618	0.675	0.673	0.581	0.507	0.59	0.55	0.539	0.568
HCC-15	0.501	0.64	0.624	0.592	0.775	0.801	0.799	0.84	0.861	0.954	0.869	0.905	0.725
HCC-44	0.373	0.587	0.4	0.27	0.836	0.753	0.774	0.592	1.15	1.12	1.13	1.08	1.06
NCI-H1355	0.296	0.477	0.404	0.299	–	1.01	0.995	1.02	0.627	0.658	0.626	0.578	0.592
NCI-H2405	0.481	0.71	0.671	0.568	0.735	0.804	0.838	0.876	0.983	–	0.956	0.955	0.999
EKVX	0.6	0.714	–	0.677	–	0.762	0.958	1.01	0.672	1.01	0.758	0.653	0.561
NCI-H1993	–	0.532	0.648	0.466	0.798	0.854	0.923	0.964	0.57	1.02	0.979	0.845	0.644
HOP-62	0.636	0.815	0.79	0.625	0.912	0.855	0.924	0.87	0.586	0.856	0.607	0.647	0.522
SK-MES-1	0.407	0.561	0.534	0.558	0.912	0.96	1.04	0.969	1.1	1.17	0.911	1.06	0.923
ABC-1	0.425	0.518	0.482	0.292	1.01	1.16	0.836	0.705	0.813	0.921	1.03	0.956	0.768
NCI-H1755	0.538	0.791	0.717	0.62	0.786	–	0.893	0.79	0.822	0.913	0.735	0.761	0.687
NCI-H838	0.302	0.383	0.457	0.519	0.672	0.896	0.899	0.731	0.749	0.691	0.775	0.704	0.744
